A word on the IC50: it is the point on the concentration scale where inhibition reaches its midpoint.

Read-outs that look alike come from different tables or passages of the source.

The target in one test is Human Full Length PARG (Homo sapiens (Human), UniProt Q86W56). Kind of test: PARG enzyme assay (TR-FRET). It counts as biochemical. (In general: In TR-FRET formats the signal depends on donor and acceptor labels being close together.)
In a further test the test system is PARG in HeLa cell line. Kind of test: PARG cell assay (PAR chain immunofluorescence after MMS). It counts as cell-based. As to conditions: HeLa cells. A digest of the protocol:
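Nuclear poly(ADP-ribose) chains in HeLa cells are read by indirect immunofluorescence with a mouse anti-PAR antibody applied overnight at 4° C after fixing and permeabilising. Cells get 1 h of compound, then 50 μg/mL MMS (final) for another hour. PAR persisting at that point reflects PARG inhibition.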

Where [1] appears, read: read-out: PARG Biochem IC50 Geomean.
Setting [2] is: Homo sapiens, MMS 50 μg/mL, read-out: PARG Cell IC50 Geomean.
The mark [3] stands for this setting: Homo sapiens, MMS treatment, read-out: PARG Cell IC50.
The mark [4] stands for this setting: MMS 50 μg/mL, read-out: PARG Cell IC50 Geomean.

Sequence of Human Full Length PARG (Q86W56 whole entry): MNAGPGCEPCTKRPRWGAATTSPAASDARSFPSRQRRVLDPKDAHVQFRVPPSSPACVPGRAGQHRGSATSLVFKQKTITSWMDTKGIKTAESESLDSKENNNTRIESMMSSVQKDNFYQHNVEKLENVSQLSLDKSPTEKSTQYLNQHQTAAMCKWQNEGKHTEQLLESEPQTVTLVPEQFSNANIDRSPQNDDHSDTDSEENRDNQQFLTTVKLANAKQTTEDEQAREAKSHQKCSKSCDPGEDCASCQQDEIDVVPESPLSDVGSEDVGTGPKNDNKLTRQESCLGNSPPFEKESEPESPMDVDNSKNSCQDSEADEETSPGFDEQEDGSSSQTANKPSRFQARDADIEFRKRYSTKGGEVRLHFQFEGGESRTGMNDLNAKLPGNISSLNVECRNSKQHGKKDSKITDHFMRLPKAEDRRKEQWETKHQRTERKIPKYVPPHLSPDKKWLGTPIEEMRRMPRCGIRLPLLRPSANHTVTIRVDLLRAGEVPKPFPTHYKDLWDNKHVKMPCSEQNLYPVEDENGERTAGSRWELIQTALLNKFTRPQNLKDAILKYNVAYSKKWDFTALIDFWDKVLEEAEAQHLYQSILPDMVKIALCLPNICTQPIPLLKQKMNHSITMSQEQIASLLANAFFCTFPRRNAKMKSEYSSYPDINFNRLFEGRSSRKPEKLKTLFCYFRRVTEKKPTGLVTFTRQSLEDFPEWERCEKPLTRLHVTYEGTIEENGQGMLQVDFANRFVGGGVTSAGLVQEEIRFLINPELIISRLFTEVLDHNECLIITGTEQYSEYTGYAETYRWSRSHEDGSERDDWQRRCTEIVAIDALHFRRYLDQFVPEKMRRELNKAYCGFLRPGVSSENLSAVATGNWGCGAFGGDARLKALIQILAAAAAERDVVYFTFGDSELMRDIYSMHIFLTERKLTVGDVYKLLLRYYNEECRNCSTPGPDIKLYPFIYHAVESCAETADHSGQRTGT

Take `Cn1cc(Cn2c(=O)c3cc(S(=O)(=O)NC4(C)CC4)ccc3n(CC3CCOC3)c2=O)cn1` (centres unmarked) [Example 259]: the IC50 on Human Full Length PARG (setting [1]) and in the test with PARG in HeLa cell line (setting [2]) was 108 nM each time.

Consider `Cn1cc(Cn2c(=O)[nH]c3ccc(S(=O)(=O)NC4(C=O)CC4)cc3c2=O)cn1` [Example 479, N-(1-Formylcyclopropyl)-3-[(1-methylpyrazol-4-yl)methyl]-2,4-dioxo-1H-quinazoline-6-sulfonamide], for which the results for the IC50 on Human Full Length PARG (read-out: PARG Biochem IC50) and in the test with PARG in HeLa cell line (setting [3]) were 10200 nM and 3650 nM, respectively.

As to `Cc1cc(Cn2c(=O)c3cc(S(=O)(=O)NC4(C)CC4)ccc3n(CC3CNC3)c2=O)on1` [Example 415, 1-(Azetidin-3-ylmethyl)-N-(1-methylcyclopropyl)-3-[(3-methylisoxazol-5-yl)methyl]-2,4-dioxo-quinazoline-6-sulfonamide], the concentration for half-maximal inhibition (IC50) on Human Full Length PARG (read-out: PARG Biochem IC50) was determined as 609 nM; in the test on PARG in HeLa cell line (setting [3]) it was 1440 nM.

As for `CC1(NS(=O)(=O)c2ccc3[nH]c(=O)c(Br)cc3c2)CC1` [Example 487, 3-Bromo-N-(1-methylcyclopropyl)-2-oxo-1H-quinoline-6-sulfonamide], the IC50 at Human Full Length PARG (read-out: PARG Biochem IC50) was 8970 nM; in the test on PARG in HeLa cell line (setting [3]), over 30000 nM.

Take `Cc1cc(Cn2c(=O)[nH]c3ccc(S(=O)(=O)NC4(C#N)CC4)cc3c2=O)on1` [Example 228, N-(1-Cyanocyclopropyl)-3-[(3-methylisoxazol-5-yl)methyl]-2,4-dioxo-1H-quinazoline-6-sulfonamide]: the IC50 on Human Full Length PARG (setting [1]) was 356 nM; in the test with PARG in HeLa cell line (setting [4]), 15200 nM.

With `Cc1cc(Cn2c(=O)c3cc(S(=O)(=O)NC4(C)CC4)ccc3n(CC3CCCN3C)c2=O)on1` (centres unmarked) [Example 249], the IC50 on Human Full Length PARG (setting [1]) came out at 402 nM; with PARG in HeLa cell line (setting [2]), 315 nM.

As for `Cn1cc(Cn2c(=O)c3cc(S(=O)(=O)NC4(C)CC4)c(F)cc3n(Cc3cnn(C)c3)c2=O)cn1` [Example 393, 7-Fluoro-N-(1-methylcyclopropyl)-1,3-bis[(1-methylpyrazol-4-yl)methyl]-2,4-dioxo-quinazoline-6-sulfonamide], the IC50 was 28 nM at Human Full Length PARG (setting [1]) and 84 nM with PARG in HeLa cell line (setting [4]).

Take `Cn1cc(Cn2c(=O)c3cc(S(=O)(=O)NC4(CF)CC4)ccc3n(Cc3ccc(F)cc3)c2=O)cn1` [Example 419, N-[1-(Fluoromethyl)cyclopropyl]-1-[(4-fluorophenyl)methyl]-3-[(1-methylpyrazol-4-yl)methyl]-2,4-dioxo-quinazoline-6-sulfonamide]: the IC50 was 106 nM at Human Full Length PARG (read-out: PARG Biochem IC50) and 118 nM in the test on PARG in HeLa cell line (setting [3]).

Consider `Cc1cc(Cn2c(=O)c3cc(S(=O)(=O)NC4(CF)CC4)ccc3n(CC#N)c2=O)on1` [Example 523, 1-(Cyanomethyl)-N-[1-(fluoromethyl)cyclopropyl]-3-[(3-methylisoxazol-5-yl)methyl]-2,4-dioxo-quinazoline-6-sulfonamide], for which the figures for the IC50 at Human Full Length PARG (read-out: PARG Biochem IC50) and in the test on PARG in HeLa cell line (setting [3]) were 411 nM and 571 nM, respectively.

For `Cc1cc(Cn2c(=O)n(Cc3cnn(C)c3)c(=O)c3cc(S(=O)(=O)NC(C)(C)C)ccc32)n(C)n1` [Example 480], the IC50 on Human Full Length PARG (read-out: PARG Biochem IC50) amounted to 784 nM; in the test on PARG in HeLa cell line (MMS treatment, read-out: PARG Cell IC50), 1530 nM.

For the compound `Cn1cc(Cn2c(=O)c3cc(S(=O)(=O)NC4(C(F)F)CC4)ccc3n(CC3CC3)c2=O)cn1` [Example 458, 1-(Cyclopropylmethyl)-N-[1-(difluoromethyl)cyclopropyl]-3-[(1-methylpyrazol-4-yl)methyl]-2,4-dioxo-quinazoline-6-sulfonamide], the IC50 on Human Full Length PARG (read-out: PARG Biochem IC50) amounted to 1070 nM; in the test on PARG in HeLa cell line (setting [3]), 555 nM.

`Cc1cc(Cn2c(=O)c3cc(S(=O)(=O)NC4(C)CC4)ccc3n(CC3CCCO3)c2=O)on1` (centres unmarked) [Example 267]: the results for the IC50 at Human Full Length PARG (setting [1]) and with PARG in HeLa cell line (setting [4]) were 234 nM and 248 nM, respectively.

Consider `Cc1cc(Cn2c(=O)c3cc(S(=O)(=O)NC4(C)CC4)ccc3n(CC3CC3)c2=O)on1` [Example 197], for which the IC50 at Human Full Length PARG (setting [1]) amounted to 55 nM; in the test on PARG in HeLa cell line (setting [2]) it was 49 nM.

As for `Cc1ncc(Cn2c(=O)c3cc(S(=O)(=O)NC4(C)CC4)ccc3n(Cc3ccc(F)cc3)c2=O)s1` [Example 176], the IC50 at Human Full Length PARG (setting [1]) was found to be 89 nM; with PARG in HeLa cell line (setting [2]) it was 85 nM.

As for `CCOC(=O)Cn1c(=O)c2cc(S(=O)(=O)NC3(C)CC3)ccc2n(C)c1=O` [Example 468, Ethyl 2-[1-methyl-6-[(1-methylcyclopropyl)sulfamoyl]-2,4-dioxo-quinazolin-3-yl]acetate], the IC50 on Human Full Length PARG (read-out: PARG Biochem IC50) was 3980 nM; with PARG in HeLa cell line (setting [3]), 1120 nM.

As for `Cc1cc(Cn2c(=O)c3cc(S(=O)(=O)NC4(CF)CC4)ccc3n(CC3CCOC3)c2=O)on1` (centres unmarked) [Example 524, N-[1-(Fluoromethyl)cyclopropyl]-3-[(3-methylisoxazol-5-yl)methyl]-2,4-dioxo-1-(tetrahydrofuran-3-ylmethyl)quinazoline-6-sulfonamide], the IC50 on Human Full Length PARG (read-out: PARG Biochem IC50) was 125 nM; with PARG in HeLa cell line (setting [3]), 310 nM.

For `Cc1cc(Cn2c(=O)n(Cc3cnn(C)c3)c(=O)c3cc(S(=O)(=O)NC4(C#N)CC4)ccc32)on1` [Example 359], the 50% inhibitory concentration (IC50) came out at 43 nM on Human Full Length PARG (setting [1]) and 1100 nM in the test with PARG in HeLa cell line (setting [2]).

For `Cc1cc(Cn2c(=O)c3cc(S(=O)(=O)NC4(C)CC4)ccc3n(CC3CCCCC3)c2=O)on1` [Example 290], the IC50 stood at 497 nM on Human Full Length PARG (setting [1]) and 260 nM with PARG in HeLa cell line (setting [2]).

As to `Cn1cc(Cn2c(=O)c3cc(S(=O)(=O)NC4(C#N)CC4)ccc3n(C)c2=O)cn1` [Example 344], the figures for the IC50 on Human Full Length PARG (setting [1]) and in the test on PARG in HeLa cell line (setting [2]) were 491 nM and 2110 nM, respectively.

As for `CC1CC1Cn1c(=O)n(C)c(=O)c2cc(S(=O)(=O)NC3(C)CC3)ccc21` (centres unmarked) [Example 35], the results for the IC50 on Human Full Length PARG (setting [1]) and with PARG in HeLa cell line (setting [2]) were 246 nM and 409 nM, respectively.

As for `Cn1cc(Cn2c(=O)c3cc(S(=O)(=O)NC4(CF)CC4)ccc3n(CC3COC3)c2=O)cn1` [Example 445, N-[1-(Fluoromethyl)cyclopropyl]-3-[(1-methylpyrazol-4-yl)methyl]-1-(oxetan-3-ylmethyl)-2,4-dioxo-quinazoline-6-sulfonamide], the results for the IC50 at Human Full Length PARG (read-out: PARG Biochem IC50) and with PARG in HeLa cell line (setting [3]) were 102 nM and 417 nM, respectively.

For the compound `Cc1cc(Cn2c(=O)c3cc(S(=O)(=O)NC4(CF)CC4)ccc3n(CC(F)(F)F)c2=O)on1` [Example 622, N-[1-(Fluoromethyl)cyclopropyl]-3-[(3-methylisoxazol-5-yl)methyl]-2,4-dioxo-1-(2,2,2-trifluoroethyl)quinazoline-6-sulfonamide], the IC50 came to 355 nM at Human Full Length PARG (read-out: PARG Biochem IC50) and 228 nM in the test on PARG in HeLa cell line (setting [3]).

For `CCC(CC)Cn1c(=O)n(Cc2cc(C)no2)c(=O)c2cc(S(=O)(=O)NC3(C)CC3)ccc21` [Example 470, 1-(2-Ethylbutyl)-N-(1-methylcyclopropyl)-3-[(3-methylisoxazol-5-yl)methyl]-2,4-dioxo-quinazoline-6-sulfonamide], the IC50 was determined as 546 nM on Human Full Length PARG (read-out: PARG Biochem IC50) and 266 nM with PARG in HeLa cell line (setting [3]).

Take `CCCn1c(=O)n(Cc2cc(C)no2)c(=O)c2cc(S(=O)(=O)NC3(CF)CC3)ccc21` [Example 535, N-[1-(Fluoromethyl)cyclopropyl]-3-[(3-methylisoxazol-5-yl)methyl]-2,4-dioxo-1-propyl-quinazoline-6-sulfonamide]: the IC50 on Human Full Length PARG (read-out: PARG Biochem IC50) was found to be 191 nM; in the test on PARG in HeLa cell line (setting [3]) it was 147 nM.

For the compound `COc1cccc(Cn2c(=O)n(Cc3cnn(C)c3)c(=O)c3cc(S(=O)(=O)NC4(C)CC4)ccc32)c1` [Example 172], the figures for the IC50 at Human Full Length PARG (setting [1]) and with PARG in HeLa cell line (setting [4]) were 100 nM and 193 nM, respectively.

As to `Cn1cc(Cn2c(=O)c3cc(S(=O)(=O)NC4(C)CC4)c(F)cc3n(CC3CC3)c2=O)cn1` [Example 388], the IC50 at Human Full Length PARG (setting [1]) is 25 nM; in the test on PARG in HeLa cell line (setting [2]) it was 31 nM.

Regarding `Cc1ncc(Cn2c(=O)c3cc(S(=O)(=O)NC4(C)CC4)ccc3n(C)c2=O)cn1` [Example 433, 1-Methyl-N-(1-methylcyclopropyl)-3-[(2-methylpyrimidin-5-yl)methyl]-2,4-dioxo-quinazoline-6-sulfonamide], the IC50 on Human Full Length PARG (read-out: PARG Biochem IC50) came to 3340 nM; with PARG in HeLa cell line (setting [3]), 1130 nM.

For `Cn1cc(Cn2c(=O)[nH]c3ccc(S(=O)(=O)NC4(C#N)CC4)cc3c2=O)cn1` [Example 336, N-(1-Cyanocyclopropyl)-3-[(1-methylpyrazol-4-yl)methyl]-2,4-dioxo-1H-quinazoline-6-sulfonamide], the IC50 at Human Full Length PARG (setting [1]) amounted to 401 nM; in the test with PARG in HeLa cell line (setting [4]) it was 17900 nM.

Consider `Cn1cc(Cn2c(=O)c3cc(S(=O)(=O)NC4(C)CC4)c(F)cc3n(CC3CCOC3)c2=O)cn1` (centres unmarked) [Example 395, 7-Fluoro-N-(1-methylcyclopropyl)-3-[(1-methylpyrazol-4-yl)methyl]-2,4-dioxo-1-(tetrahydrofuran-3-ylmethyl)quinazoline-6-sulfonamide], for which the IC50 at Human Full Length PARG (setting [1]) is 60 nM; in the test with PARG in HeLa cell line (setting [2]), 156 nM.

`Cc1noc(C)c1Cn1c(=O)c2cc(S(=O)(=O)NC3(C)CC3)ccc2n(C)c1=O` [Example 115]: the IC50 on Human Full Length PARG (setting [1]) was determined as 616 nM; in the test with PARG in HeLa cell line (setting [2]), 386 nM.

Consider `COc1ccc(Cn2c(=O)n(C)c(=O)c3cc(S(=O)(=O)NC4(C)CC4)ccc32)cc1` [Example 61], for which the IC50 at Human Full Length PARG (setting [1]) was 454 nM; with PARG in HeLa cell line (setting [2]), 199 nM.

For `Cc1cc(Cn2c(=O)c3cc(S(=O)(=O)NC4(C#N)CC4)ccc3n(C)c2=O)on1` [Example 229], the half-maximal inhibitory concentration (IC50) on Human Full Length PARG (setting [1]) turned out to be 446 nM; in the test with PARG in HeLa cell line (setting [2]), 1470 nM.

As for `COc1cccc(Cn2c(=O)n(Cc3cc(C)no3)c(=O)c3cc(S(=O)(=O)NC4(C)CC4)ccc32)c1` [Example 200], the values for the IC50 at Human Full Length PARG (setting [1]) and in the test with PARG in HeLa cell line (setting [2]) were 250 nM and 223 nM, respectively.

Consider `Cn1cc(Cn2c(=O)c3cc(S(=O)(=O)NC4(CF)CC4)ccc3n(Cc3ccno3)c2=O)cn1` [Example 585, N-[1-(Fluoromethyl)cyclopropyl]-1-(isoxazol-5-ylmethyl)-3-[(1-methylpyrazol-4-yl)methyl]-2,4-dioxo-quinazoline-6-sulfonamide], for which the IC50 stood at 38 nM on Human Full Length PARG (read-out: PARG Biochem IC50) and 52 nM in the test with PARG in HeLa cell line (setting [3]).

Values taken from patent publication US10239843B2 (CANCER RESEARCH TECHNOLOGY LIMITED, priority 2014, dated 2019).
